Consider 2 compounds from paper PMC10459693, “Toward Stability Enhancement of NTS1R-Targeted Radioligands: Structural Interventions on [^99mTc]Tc-DT1” (Pharmaceutics, 2023).

The target in the experiment is T1, human NTS1R (Homo sapiens, UniProt P30989).
T1 construct: Cell membrane homogenates from WiDr cells were collected; host or cells: WiDr human colorectal adenocarcinoma cells (membrane homogenates)
The experiment in a line: Competition binding against [^125I]I-Tyr^3-NT in WiDr cell membranes. The settings on record: for IC50: displacement of [^125I]I-Tyr^3-NT, WiDr cell membranes, 1 h at 22 °C, mean ± sd. How it is done: Cell membrane homogenates from WiDr cells were collected and stored in Tris/EDTA (10 mM Tris, 0.1 mM EDTA, pH 7.4) solution at −80 °C, as previously described. On the day of the experiment, the aliquots thereof were thawed, combined, and diluted in cold binding buffer (BB: 50 mM HEPES, 5.5 mM MgCl2, 0.1 mg/mL bacitracin, 1% w/v BSA, pH 7.4). A dilution series of each test peptide (10^−12–10^−5 M) and a fresh solution of [^125I]I-Tyr^3-NT (~40,000 cpm/70 μL, 214 pM) were prepared and kept on ice. In each RIA tube per placed on ice (in triplicate for each concentration point), the following ice-cold solutions were added: test peptide solution (30 μL), the [^125I]I-Tyr^3-NT radioligand (70 μL), and membrane homogenate (200 μL). Tubes were incubated under constant stirring for 1 h at 22 °C in an Incubator-Orbital Shaker (MPM Instr. Srl; Bernareggio, Italy). The incubation was terminated by placing the tubes on ice and adding ice-cold washing buffer (10 mM HEPES, 150 mM NaCl, pH 7.4). Samples were rapidly passed through Whatman GF/B filters (presoaked for 1 h in BB) on a 48-sample Brandel Cell Harvester (Adi Hassel Ingenieur Büro, Munich, Germany). Separate filters were measured for radioactivity on the γ-counter, and the half maximal inhibition concentration (IC50) was calculated applying a non-linear one-site model (GraphPad Prism Software 6.0, San Diego, CA, USA).

Square brackets hold non-standard residues; d marks the D form. Peptide text beside a SMILES is read from it. * marks the point of attachment. Palmitoyl = CCCCCCCCCCCCCCCC(=O)*; X1 = NCCNCC(CNCCN)C(=O)*

T1 sequence (P30989 whole entry): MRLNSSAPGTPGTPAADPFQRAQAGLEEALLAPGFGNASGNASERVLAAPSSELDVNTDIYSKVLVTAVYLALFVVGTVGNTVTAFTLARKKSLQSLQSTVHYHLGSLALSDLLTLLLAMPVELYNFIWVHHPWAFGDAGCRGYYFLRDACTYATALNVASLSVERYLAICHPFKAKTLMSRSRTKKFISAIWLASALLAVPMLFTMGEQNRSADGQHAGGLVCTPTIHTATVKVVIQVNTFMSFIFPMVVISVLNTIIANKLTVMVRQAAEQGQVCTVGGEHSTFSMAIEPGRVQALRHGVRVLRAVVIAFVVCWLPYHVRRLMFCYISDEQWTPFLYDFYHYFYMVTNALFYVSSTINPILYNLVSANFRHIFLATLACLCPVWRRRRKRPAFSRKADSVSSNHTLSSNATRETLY

`CCCCCCCCCCCCCCCC(=O)NCCCC[C@H](NC(=O)C(CNCCN)CNCCN)C(=O)N[C@@H](CCCNC(=N)N)C(=O)N[C@@H](CCCNC(=N)N)C(=O)N1CCC[C@H]1C(=O)N[C@@H](Cc1ccc(O)cc1)C(=O)N[C@H](C(=O)N[C@@H](CC(C)C)C(=O)O)[C@@H](C)CC` [DT9] (X1-K(Palmitoyl)RRPYIL-OH) registered a concentration for half-maximal inhibition (IC50) of 0.89 ± 0.7 nM.

As for `CC[C@H](C)[C@H](NC(=O)[C@H](Cc1ccc(O)cc1)NC(=O)[C@@H]1CCCN1C(=O)[C@H](CCCNC(=N)N)NC(=O)[C@H](CCCNC(=N)N)NC(=O)CNC(=O)C(CNCCN)CNCCN)C(=O)N[C@@H](CC(C)C)C(=O)N[C@H](CC(N)=O)C(=O)O` [DT7, N4-Gly-Arg-Arg-Pro-Tyr-Ile-Leu-DAsn-OH] (X1-GRRPYIL[dN]-OH), the IC50 worked out at 29.1 ± 4.11 nM. Where the note is “by a power of”, the “drop of binding affinity to the NTS1R compared to DT1” value is approximately 100.

As a reminder, the IC50 is the concentration at which inhibition is half-maximal. A lower IC50 goes with greater potency.
